Test results reported in patent US9593305B2, “Differentiation of pluripotent stem cells” (Janssen Biotech, Inc., priority 2008, dated 2017).

System: H1 human embryonic stem cells
Test: Step-wise differentiation, high content analysis of cell number, insulin, glucagon after step 5 (Example 17)
Format: cell-based
Settings: GDF-8 in step 1, alone or with a compound
Procedure: Step 5 of the differentiation protocol was carried out over seven days in DMEM-high glucose with 0.1% Albumax, 0.5× Insulin-Transferrin-Selenium, and 1 μM Alk 5 inhibitor. Medium in each well was aspirated and replaced with a fresh aliquot (0.5 ml) on all days. At the conclusion of the fifth step of differentiation, cells from some wells were harvested for analysis by RT-PCR to measure markers of differentiation. Other culture wells were subjected to high content image analysis for protein expression levels of insulin and glucagon.
At the conclusion of culture, assay plates were washed once with PBS (Invitrogen; Cat #14190), fixed with 4% paraformaldehyde (Alexis Biochemical; Cat #ALX-350-011) at room temperature for 20 minutes, then washed three times with PBS and permeabilized with 0.5% Triton X-100 (Sigma; Cat #T8760-2) for 20 minutes at room temperature. […]
Imaging was performed using an IN Cell Analyzer 1000 (GE Healthcare) utilizing the 51008bs dichroic for cells stained with Hoechst 33342 and Alexa Fluor 488. […] Segmentation for the nuclei was determined based on gray-scale levels (baseline range 100-300) and nuclear size. Averages and standard deviations were calculated for each replicate data set. Total protein expression was reported as total intensity or integrated intensity, defined as total fluorescence of the cell multiplied by the area of the cell. […]

GDF-8: growth factor GDF-8, also known as myostatin, member of the TGF-β family
insulin and glucagon expression at the conclusion of step five: resulted in insulin and glucagon expression
